Source: the supplement of paper PMC12317010
Counter-ions that a name gives are not always drawn.

Test: collision cross section in nitrogen (drift tube, single-field); higher = larger gas-phase ion size
[1] = ion type: [M+H], ion source: ESI, ion mode: Positive
[2] = ion type: [M+Na], ion source: ESI, ion mode: Positive
[3] = ion type: [M+H], ion source: APCI, ion mode: Positive
[4] = ion type: [M-H], ion source: ESI, ion mode: Negative
[5] = ion source: ESI, ion mode: Positive, ion type: [M]+ (permanent cation)
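Also: chemical standards at 10 µM analysed by drift tube IMS-QTOF MS in about 3.95 torr nitrogen, mean of duplicate injections differing ≤1%, mass error below 10 ppm.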

SMILES | collision cross section in nitrogen [1] [Å²] | collision cross section in nitrogen [2] [Å²] | collision cross section in nitrogen [4] [Å²] | also measured
CCNc1nc(NC(C)C(C)C)nc(SC)n1 (stereo not drawn) [Dimethametryn] | 165 | – | 166.9 | collision cross section in nitrogen [3]: 165.4 Å²
COCC(C)N(C(=O)CCl)c1c(C)csc1C (stereo not drawn) [Dimethenamid] | 155.9 | 167.9 | – | collision cross section in nitrogen [3]: 155.2 Å²
COc1ccc(C(=CC(=O)N2CCOCC2)c2ccc(Cl)cc2)cc1OC [Dimethomorph] | 199.2 | 208 | – | collision cross section in nitrogen [3]: 200.7 Å²
COP(=O)(CCC(=O)NCO)OC [Dimethyl (3-((hydroxymethyl)amino)-3-oxopropyl)phosphonate] | – | 144 | – | –
COC(=O)CCCCCCCC(=O)OC [Dimethyl nonanedioate] | – | 155.6 | – | –
COP(=O)(O)OC [Dimethyl phosphate] | – | – | 120.6 | –
Cc1cc(OC(=O)N(C)C)nn1C(=O)N(C)C [Dimetilan] | 153.1 | 157.9 | – | collision cross section in nitrogen [3]: 152.5 Å²
CC(C)(C)C(O)/C(=C\c1ccc(Cl)cc1Cl)n1cncn1 (stereo not drawn) [Diniconazole] | 177.1 | – | – | collision cross section in nitrogen [3]: 177.9 Å²
CCN(CC)c1c([N+](=O)[O-])cc(C(F)(F)F)c(N)c1[N+](=O)[O-] [Dinitramine] | – | – | 159.7 | –
CC(C)(C)c1cc([N+](=O)[O-])cc([N+](=O)[O-])c1O [Dinoterb] | – | – | 150.1 | –
CNC(=O)Oc1ccccc1C1OCCO1 [Dioxacarb] | – | 151.9 | – | –
CCCCCOC(=O)c1ccccc1C(=O)OCCCCC [Dipentyl phthalate] | – | 193.4 | – | –
CN(C)C(=O)C(c1ccccc1)c1ccccc1 [Diphenamid] | 154.7 | 164.6 | – | collision cross section in nitrogen [3]: 154.1 Å²
CN(C)CCOC(c1ccccc1)c1ccccc1 [Diphenhydramine hydrochloride] | – | 168.8 | – | –
O=P(O)(Oc1ccccc1)Oc1ccccc1 [Diphenyl phosphate] | 156.5 | – | 153.6 | –
O=C(Oc1ccccc1)c1ccccc1C(=O)Oc1ccccc1 [Diphenyl phthalate] | – | 181.1 | – | –
Cc1cc(C)c(C(=O)P(=O)(c2ccccc2)c2ccccc2)c(C)c1 [Diphenyl(2,4,6-trimethylbenzoyl)phosphine oxide] | – | 191.1 | – | –
O=C1NC(=O)C(c2ccccc2)(c2ccccc2)N1 [Diphenylhydantoin sodium] | – | – | 160.6 | –

SMILES | collision cross section in nitrogen [1] [Å²] | collision cross section in nitrogen [2] [Å²] | collision cross section in nitrogen [4] [Å²] | also measured
CC1(C)OC[C@@H]2O[C@@]3(C(=O)O)OC(C)(C)O[C@H]3[C@@H]2O1 [Diprogulic acid] | – | 160.6 | 162.8 | –
CCCOC(=O)c1c(Cl)c(Cl)c(Cl)c(Cl)c1C(=O)OCCC [Dipropyl 3,4,5,6-tetrachlorobenzene-1,2-dicarboxylate] | – | 191.8 | – | –
O=S(=O)(O)c1ccccc1C=Cc1ccc(-c2ccc(C=Cc3ccccc3S(=O)(=O)O)cc2)cc1 [Disodium 4,4'-bis(2-sulfostyryl)biphenyl] | – | – | 248.5 | –
CCOP(=S)(OCC)SCCS(=O)(=O)CC [Disulfoton sulfone] | – | 166 | – | –
CCCCCCCCCCCCCOC(=O)c1ccccc1C(=O)OCCCCCCCCCCCCC [Ditridecyl phthalate (mixture of branched chain isomers)] | – | 244.3 | – | –
CCCCCCCCCCCCN [Dodecylamine hydrochloride] | 164 | – | – | –
CCCCCCCCCCCCNC(=N)N [Dodecylguanidine acetate] | – | – | – | collision cross section in nitrogen [3]: 175.2 Å²
CCCCCCCCCCCC[N+](C)(C)C [Dodecyltrimethylammonium bromide] | – | – | – | collision cross section in nitrogen [5]: 175.8 Å²
CCCCCCCCCCCC[N+](C)(C)C [Dodecyltrimethylammonium chloride] | – | – | – | collision cross section in nitrogen (ion source: APCI, ion mode: Positive, ion type: [M]+ (permanent cation)): 175.2 Å²; collision cross section in nitrogen [5]: 175.9 Å²
COc1cccc2c1C(=O)c1c(O)c3c(c(O)c1C2=O)C[C@@](O)(C(=O)CO)C[C@@H]3O[C@H]1C[C@H](N)[C@H](O)[C@H](C)O1 [Doxorubicin hydrochloride] | 230 | 232.8 | 223.1 | collision cross section in nitrogen [3]: 230.5 Å²
CN(C)CCOC(C)(c1ccccc1)c1ccccn1 (stereo not drawn) [Doxylamine succinate] | – | – | – | collision cross section in nitrogen [3]: 162 Å²
CCOc1ccc(NC(N)=O)cc1 [Dulcin] | 144.1 | 149.7 | – | collision cross section in nitrogen [3]: 144.5 Å²
O=C1Nc2ccc(Cl)cc2[C@@](C#CC2CC2)(C(F)(F)F)O1 [Efavirenz] | – | – | 168.1 | –
O=S1(=O)OCC2C(CO1)C1(Cl)C(Cl)=C(Cl)C2(Cl)C1(Cl)Cl (stereo not drawn) [Endosulfan sulfate] | – | – | 173.3 | –
O=C(O)C1C2CCC(O2)C1C(=O)O (stereo not drawn) [Endothal] | – | 140.1 | 135.6 | –
Fc1ccc([C@@]2(Cn3cncn3)O[C@@H]2c2ccccc2Cl)cc1 [Epoxiconazole] | 176.6 | 191.3 | – | collision cross section in nitrogen [3]: 176.9 Å²
CC[C@H]1OC(=O)[C@H](C)[C@@H](O[C@H]2C[C@@](C)(OC)[C@@H](O)[C@H](C)O2)[C@H](C)[C@@H](O[C@@H]2O[C@H](C)C[C@H](N(C)C)[C@H]2O)[C@](C)(O)C[C@@H](C)C(=O)[C@H](C)[C@@H](O)[C@]1(C)O [Erythromycin] | 257.1 | 262.9 | – | collision cross section in nitrogen [3]: 258.5 Å²
C[C@]12CC[C@@H]3c4ccc(O)cc4CC[C@H]3[C@@H]1C[C@@H](O)[C@@H]2O [Estriol] | – | – | 178.1 | –

The next lines start with results.

collision cross section in nitrogen [1] [Å²] | collision cross section in nitrogen [2] [Å²] | collision cross section in nitrogen [4] [Å²] | SMILES | also measured
197.8 | 203.2 | – | COc1ccc([C@@H]2Sc3ccccc3N(CCN(C)C)C(=O)[C@@H]2OC(C)=O)cc1 [Diltiazem hydrochloride] | –
– | 146.5 | – | COC(=O)CCSCCC(=O)OC [Dimethyl 3,3'-thiodipropionate] | –
224.6 | 225.4 | – | CCCCCCCCOC(=O)CCCCCCCCC(=O)OCCCCCCCC [Dioctyl sebacate] | –
– | 217.9 | – | C=CC(=O)OCC(CO)(COCC(COC(=O)C=C)(COC(=O)C=C)COC(=O)C=C)COC(=O)C=C [Dipentaerythritol pentaacrylate] | –
154.2 | 157.9 | 154.6 | OCC(CO)(CO)COCC(CO)(CO)CO [Dipentaerythritol] | –
137.8 | – | – | c1ccc(Nc2ccccc2)cc1 [Diphenylamine] | collision cross section in nitrogen (ion type: [M+], ion source: APCI, ion mode: Positive): 133.9 Å²
163.2 | 178.6 | – | CCCOC(=O)c1ccc(C(=O)OCCC)nc1 [Dipropyl 2,5-pyridinedicarboxylate] | collision cross section in nitrogen [3]: 163.2 Å²
– | 168.6 | – | CCCOC(=O)CCCCC(=O)OCCC [Dipropyl hexanedioate] | –
– | – | 173.9 | Cc1c(N(C)CS(=O)(=O)O)c(=O)n(-c2ccccc2)n1C [Dipyrone monohydrate] | –
– | – | 160.1 | O=S(=O)(O)c1ccc2cc(O)c(S(=O)(=O)O)cc2c1 [Disodium 3-hydroxynaphthalene-2,7-disulfonate] | –
213.3 | 201.3 | – | CC(=O)OCCN(CCOC(C)=O)c1ccc(N=Nc2ccc([N+](=O)[O-])cc2C#N)cc1 [Disperse Red 82] | collision cross section in nitrogen [3]: 213.1 Å²
150.9 | – | 147.5 | CN(C)C(=O)Nc1ccc(Cl)c(Cl)c1 [Diuron] | collision cross section in nitrogen [3]: 151.3 Å²
– | – | 206.1 | CCCCC(CC)COC(=O)CC(C(=O)OCC(CC)CCCC)S(=O)(=O)O (stereo not drawn) [Docusate sodium] | –
– | – | 162 | CCCCCCCCCCCCOC(C)=O [Dodecyl acetate] | –
– | 167.4 | 184.8 | CCCCCCCCCCCCc1ccc(S(=O)(=O)O)cc1 [Dodecylbenzenesulfonic acid] | –
– | 158 | – | O=C(OCC1CCC2OC2C1)C1CCC2OC2C1 (stereo not drawn) [ECC] | –
185.7 | 193.2 | – | Clc1ccc(COC(Cn2ccnc2)c2ccc(Cl)cc2Cl)cc1 (stereo not drawn) [Econazole nitrate] | collision cross section in nitrogen [3]: 185.8 Å²
203.8 | 211.4 | – | CN1CCN(c2ccccc2/C=C2\SCCN(c3ccc(Cl)c(Cl)c3)C2=O)CC1 [Elzasonan] | collision cross section in nitrogen [3]: 204 Å²
– | – | 154.6 | Cc1cc(O)c2c(c1)C(=O)c1cc(O)cc(O)c1C2=O [Emodin] | –
– | – | 207.8 | O=C1OC2(c3ccccc31)c1cc(Br)c(O)c(Br)c1Oc1c2cc(Br)c(O)c1Br [Eosin] | –
– | – | 172.2 | C[C@]12CC[C@H]3C(=CCc4cc(O)ccc43)[C@@H]1CCC2=O [Equilin] | –
– | – | 220.4 | C[C@]12CC[C@@H]3c4ccc(O)cc4CC[C@H]3[C@@H]1CC[C@@H]2OC(=O)CCC1CCCC1 [Estradiol cypionate] | –
